Data taken from article PMC8348983 (International Journal of Molecular Sciences, 2021).
pIC50: −log10 of the molar value.

Experiments:
Type in all cases: biochemical
[1] = target: POP (prolyloligopeptidase) (Homo sapiens, UniProt P48147); assay: POP inhibition assay; details: bounds marked f: highest tested concentration due to low solubility in buffer; read-out: IC50, POP ± SEM
Protocol: The previously applied procedure was used. Detailed description of the assay can be found in Supplementary Materials.
POP (EC 3.4.21.26) was dissolved in phosphate-buffered saline (PBS; 0.01 M Na/K phosphate buffer, […]
The assay was performed in standard polystyrene 96-well microplates with a flat and clear bottom.
Stock solutions of tested compounds were prepared in DMSO (10 mM). Dilutions (10−3 to 10−7 M) were prepared from the stock solution with deionized H2O; the control was performed with the same DMSO concentration. POP substrate, (Z)-Gly-Pro-p-nitroanilide, was dissolved in 50% 1,4-dioxane (5 mM). For each reaction, PBS (170 μL), tested compound (5 μL), and POP (5 μL) were incubated for 5 min at 37 °C. Then, substrate (20 μL) was added, and the microplate was incubated for 30 min at 37 °C. The formation of p-nitroanilide, directly proportional to the POP activity, was measured […]
Synergy 2, BioTek Instruments, Winooski, VT). The inhibition potency of tested compounds was calculated by nonlinear regression analysis and was expressed as an IC50 value (concentration of inhibitor which causes 50% POP inhibition). […]

MAO-A = target: T1, MAO-A (Homo sapiens, UniProt P21397); assay: MAO-A inhibition assay
T1 construct: purchased Merck, Germany
T1 sequence (P21397 1-527): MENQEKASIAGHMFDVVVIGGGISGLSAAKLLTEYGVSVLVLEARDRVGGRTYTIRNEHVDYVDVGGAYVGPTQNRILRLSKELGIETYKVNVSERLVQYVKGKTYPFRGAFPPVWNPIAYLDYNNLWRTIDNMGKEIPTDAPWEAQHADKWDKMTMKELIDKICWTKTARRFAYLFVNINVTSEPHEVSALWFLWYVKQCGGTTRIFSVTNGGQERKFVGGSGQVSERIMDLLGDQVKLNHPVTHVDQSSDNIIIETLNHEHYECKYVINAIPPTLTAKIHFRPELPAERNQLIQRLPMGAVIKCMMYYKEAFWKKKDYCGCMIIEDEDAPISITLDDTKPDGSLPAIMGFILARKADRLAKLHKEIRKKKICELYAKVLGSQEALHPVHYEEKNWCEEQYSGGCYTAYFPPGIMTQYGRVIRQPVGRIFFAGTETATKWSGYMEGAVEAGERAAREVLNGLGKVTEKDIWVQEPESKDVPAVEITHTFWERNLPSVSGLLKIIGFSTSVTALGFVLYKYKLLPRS
Protocol: (§1) Since monoamine oxidase (MAO; EC 1.4.3.4) inhibitors are considered as neuroprotective agents, compound 6 was screened at two concentrations (1 and 10 µM) for its inhibition potential against both isoforms of human MAOs. […]; MAO inhibition assay was performed as previously described. Supplementary Materials provides details of this assay. […]
(§2) The reaction mixture contains 2.5mg/mL MAO -A or 6.25mg/mLMAO-B enzyme (Merck, Germany) and inhibitor in final concentrations of […] in 50 mM potassiumphosphate buffer with 20% (v/v) glycerol (pH 7.5). […] The sample was then centrifuged (16.500 g) for10 min.The deamination product of kynuramine formed during the enzymatic reaction 4-hydroxyquinoline (4-HQ) was determined by UHPLC-MS on a Zorbax RRHD Eclipse plus C18 column (2.1 mm x 50 mm, […]) (Agilent Technologies, USA), by using a 6470 Series Triple Quadrupole mass spectrometer (Agilent Technologies, USA) as detector with electrospray ionisation – positive ion mode. […]
(§3) 0.1% formic acid in water; (B) 0.1% formic acid in acetonitrile. IC 50of individual compounds were determined by nonlinear regression usingGraphPad Prism 8.0 (GraphPad Software, USA).

MAO-B = target: T2, MAO-B (Homo sapiens, UniProt P27338); assay: MAO-B inhibition assay
T2 construct: purchased Merck, Germany
T2 sequence (P27338 1-520): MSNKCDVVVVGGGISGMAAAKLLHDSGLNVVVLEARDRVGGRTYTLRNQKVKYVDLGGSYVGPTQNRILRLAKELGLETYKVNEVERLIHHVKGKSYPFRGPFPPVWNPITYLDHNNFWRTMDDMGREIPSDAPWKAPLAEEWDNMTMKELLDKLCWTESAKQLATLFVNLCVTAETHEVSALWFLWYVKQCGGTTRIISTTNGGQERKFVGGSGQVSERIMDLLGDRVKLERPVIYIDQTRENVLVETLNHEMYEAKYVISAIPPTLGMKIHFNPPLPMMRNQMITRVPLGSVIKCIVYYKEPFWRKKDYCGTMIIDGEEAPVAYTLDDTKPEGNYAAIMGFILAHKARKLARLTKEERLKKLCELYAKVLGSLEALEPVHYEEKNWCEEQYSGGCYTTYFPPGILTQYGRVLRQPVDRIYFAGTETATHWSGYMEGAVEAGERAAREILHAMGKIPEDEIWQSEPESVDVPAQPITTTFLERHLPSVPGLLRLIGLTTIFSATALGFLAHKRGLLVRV
Protocol: as §1, §2, §3

Chain of POP (prolyloligopeptidase) (P48147 whole entry): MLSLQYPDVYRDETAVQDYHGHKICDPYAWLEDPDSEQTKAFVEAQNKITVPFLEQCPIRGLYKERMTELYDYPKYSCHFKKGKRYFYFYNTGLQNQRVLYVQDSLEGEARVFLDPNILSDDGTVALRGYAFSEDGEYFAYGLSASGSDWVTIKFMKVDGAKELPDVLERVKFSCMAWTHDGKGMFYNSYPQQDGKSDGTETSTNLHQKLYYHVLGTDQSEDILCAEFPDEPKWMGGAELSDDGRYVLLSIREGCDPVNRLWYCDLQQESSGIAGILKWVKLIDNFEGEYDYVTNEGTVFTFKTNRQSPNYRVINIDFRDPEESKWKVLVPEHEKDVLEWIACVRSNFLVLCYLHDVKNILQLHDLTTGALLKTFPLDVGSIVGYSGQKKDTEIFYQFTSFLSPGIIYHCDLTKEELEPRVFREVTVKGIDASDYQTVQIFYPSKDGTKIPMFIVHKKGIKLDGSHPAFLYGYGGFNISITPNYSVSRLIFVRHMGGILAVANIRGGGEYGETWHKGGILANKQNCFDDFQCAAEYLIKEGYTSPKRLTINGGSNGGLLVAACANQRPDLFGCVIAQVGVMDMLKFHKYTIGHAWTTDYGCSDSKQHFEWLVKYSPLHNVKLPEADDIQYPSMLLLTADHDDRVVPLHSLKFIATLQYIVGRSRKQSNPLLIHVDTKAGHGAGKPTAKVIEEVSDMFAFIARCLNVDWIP

C=CCOc1ccc(CCN(CC=C)Cc2ccc(OC)c(OCc3ccccc3)c2)cc1 [Compound 6, N-allyl-N-(3-benzyloxy-4-methoxybenzyl)-2-(4-allyloxyphenyl)ethan-1-amine]
pIC50 [1]: < 4.10 | pIC50 (MAO-A): < 5.00 | residual activity of MAO-A (MAO-A; 1 and 10 µM): higher than 68% | pIC50 (MAO-B): < 5.00 | residual activity of MAO-B (MAO-B; 1 and 10 µM): higher than 68%
